Laboratory results as given in US20120077673A1, “Fungicidal Compositions and Methods of Use” (priority 2010, published 2012).

What was measured:
Assay type in all cases: in vivo
Pythium [1] = assay: Corn hybrids greenhouse trial, Pythium-infected seeds, seed treatment (Example 4)
From the text: Concentrations and compositions of triadimenol, metalaxyl, and saponin are the same as given in Example 1. The data of TABLE 4 are shown graphically in FIGS. 4A and 4B. As shown by TABLE 4 and FIGS. 4A and 4B, pre-treatment of both varieties of corn seeds with 1 GA/100 Kg metalaxyl and 0.6 GA/100 Kg yielded counts similar to those achieved from pre-treatment of seeds with either 2 GA/100 Kg metalaxyl (the industry standard dose for corn) or 7.5 GA/100 Kg metalaxyl.

Pythium ultimum = assay: Cotton varieties greenhouse trial, metalaxyl-resistant Pythium ultimum (Example 5)
From the text: Two different varieties of cotton seedlings (Variety A, and Variety B) that were infected with Pythium ultimum were exposed to various rates of metalaxyl, saponins, or metalaxyl+Saponin, and then allowed to grow in a greenhouse to determine whether the effects observed in the field could be reproduced in a greenhouse setting. This particular strain of Pythium ultimum was shown previously to have a mid-degree of resistance to seed treatments containing metalaxyl and/or L-metalaxyl. […] The stand counts from Variety B show a similar trend with the 1 GA/100 Kg rate of metalaxyl (see FIG. 5B).

Pythium [2] = assay: Cotton field trial, Pythium-infected seeds, seed treatment, control or Pythium-inoculated soil (Example 2)
From the text: The seeds were planted in a field, either in soil that had been inoculated with Pythium (Soil Inoc. with Pythium), or in soil that had not been inoculated with Pythium (Ctrl.), then allowed to grow. Concentrations and compositions of triadimenol, metalaxyl, and saponin are the same as given in Example 1. For cotton, the industry standard dosage of metalaxyl is 15.5 grams of active ingredient per 100 kilograms of seed (15.5 GA/100 Kg). […] The data of TABLE 2 are shown graphically in FIG. 2. The relative densities for the data of TABLE 2 and FIG. 2 were calculated with reference to the 15.5 GA/100 Kg metalaxyl category. As shown by TABLE 2 and FIG. 2, inoculation of the soil with Pythium was correlated with a general decrease in cotton seedling count and density (compare Ctrl. versus Inoc.).

Pythium [3] = assay: Corn field trial, Pythium-infected seeds, seed treatment, soil not inoculated (Example 1); design: Density: unit not given here; settings: for Vigor: subjective score, lower more favorable
From the text: Unlike other experiments disclosed herein, the soil for the experiment of EXAMPLE 1 was not inoculated with Pythium. Uninfected untreated, and Pythium-infected untreated seeds served as controls. Triadimenol, 15% w/v, is a systemic broad-spectrum fungicide used for cereal seed treatment, but has no activity against Pythium spp. Metalaxyl, 28.35% w/v, provides systemic protection for the seed, roots, and emerging plants against Pythium, systemic downy mildew, and Phytophthora. For corn, the industry standard dosage of metalaxyl is 2 grams of active ingredient per 100 kilograms of seed (2 GA/100 Kg). Saponin, 49.65% v/v extract of Chenopodium quinoa saponins, contained approximately equimolar amounts of triterpene bidesmosidic glycosides of oleanolic acid, hederagenin, and phytolaccagenic acid. […] In TABLE 1, “Vigor” represents a subjective measure of plant health and is based on uniformity, consistent plant mass, and consistent plant spacing, with lower scores being more favorable than higher scores. The data of TABLE 1 are shown graphically in FIGS. 1A and 1B. As shown by TABLE 1 and FIGS. 1A and 1B, the count and the density increased—over time—for all treatment conditions. The relative density, however, decreased over time for the […] and metalaxyl (2 GA/100 kg) categories. The relative density remained the same for the untreated/uninfected category because it provided the reference point (i.e., the relative densities were calculated with reference to the untreated/uninfected category).

Pythium [4] = assay: Cucumber field trial, Pythium-infected seeds, seed treatment, control or Pythium-inoculated soil (Example 3); design: Density: unit not given here
From the text: The seeds were planted in a field, either in soil that had been inoculated with Pythium (Soil Inoc. with Pythium), or in soil that had not been inoculated with Pythium (Ctrl.), then allowed to grow. Concentrations and compositions of triadimenol, metalaxyl, and saponin are the same as given in Example 1. For cucumber, the industry standard dosage of metalaxyl is 15.5 grams of active ingredient per 100 kilograms of seed (15.5 GA/100 Kg). […] The data of TABLE 3 are shown graphically in FIG. 3. The relative densities for the data of TABLE 3 and FIG. 3 were calculated with reference to the 31 GA/100 Kg metalaxyl category. As shown by TABLE 3 and FIG. 3, inoculation of the soil with Pythium was correlated with a general decrease in cucumber seedling count, density, and relative density (compare Ctrl. versus Inoc.).

[5] = Metalaxyl 7.5 GA/100 Kg, Day 14
[6] = Metalaxyl 15.5 GA/100 Kg, 34 DAA, Ctrl. soil
[7] = Metalaxyl 15.5 GA/100 Kg, 34 DAA, Soil Inoc. with Pythium
[8] = Metalaxyl 15.5 GA/100 Kg, 46 DAA, Ctrl. soil
[9] = Metalaxyl 15.5 GA/100 Kg, 46 DAA, Soil Inoc. with Pythium
[10] = Metalaxyl 31 GA/100 Kg, 34 DAA, Ctrl. soil
[11] = Metalaxyl 31 GA/100 Kg, 34 DAA, Soil Inoc. with Pythium
[12] = Metalaxyl 31 GA/100 Kg, 46 DAA, Ctrl. soil
[13] = Metalaxyl 31 GA/100 Kg, 46 DAA, Soil Inoc. with Pythium
[14] = Metalaxyl 7.5 GA/100 Kg, 30 DAA
[15] = Metalaxyl 7.5 GA/100 Kg, 46 DAA
[16] = Metalaxyl 15.5 GA/100 Kg, 18 DAA, Ctrl. soil
[17] = Metalaxyl 15.5 GA/100 Kg, 18 DAA, Soil Inoc. with Pythium
[18] = Metalaxyl 15.5 GA/100 Kg, 33 DAA, Ctrl. soil
[19] = Metalaxyl 31 GA/100 Kg, 18 DAA, Ctrl. soil
[20] = Metalaxyl 31 GA/100 Kg, 18 DAA, Soil Inoc. with Pythium
[21] = Metalaxyl 31 GA/100 Kg, 33 DAA, Ctrl. soil
[22] = Metalaxyl 31 GA/100 Kg, 33 DAA, Soil Inoc. with Pythium

COCC(=O)N(c1c(C)cccc1C)C(C)C(=O)OC (centres unmarked) [Metalaxyl]
Count, Hybrid A (Pythium [1]; Metalaxyl 2 GA/100 Kg, Day 2): 92
Count, Hybrid B (Pythium [1]; Metalaxyl 2 GA/100 Kg, Day 2): 74
Count, Hybrid A (Pythium [1]; Metalaxyl 2 GA/100 Kg, Day 7): 98
Count, Hybrid B (Pythium [1]; Metalaxyl 2 GA/100 Kg, Day 7): 88
Count, Hybrid A (Pythium [1]; Metalaxyl 2 GA/100 Kg, Day 14): 98
Count, Hybrid B (Pythium [1]; Metalaxyl 2 GA/100 Kg, Day 14): 88
Count, Hybrid A (Pythium [1]; Metalaxyl 7.5 GA/100 Kg, Day 2): 94
Count, Hybrid B (Pythium [1]; Metalaxyl 7.5 GA/100 Kg, Day 2): 64
Count, Hybrid A (Pythium [1]; Metalaxyl 7.5 GA/100 Kg, Day 7): 96
Count, Hybrid B (Pythium [1]; Metalaxyl 7.5 GA/100 Kg, Day 7): 94
Count, Hybrid A (Pythium [1]; [5]): 96
Count, Hybrid B (Pythium [1]; [5]): 98
Count, Variety A (Pythium ultimum; Metalaxyl 1 GA/100 Kg, Day 6): 76
Count, Variety B (Pythium ultimum; Metalaxyl 1 GA/100 Kg, Day 6): 77
Count, Variety A (Pythium ultimum; Metalaxyl 1 GA/100 Kg, Day 14): 57
Count, Variety B (Pythium ultimum; Metalaxyl 1 GA/100 Kg, Day 14): 26
Count, Variety A (Pythium ultimum; Metalaxyl 1 GA/100 Kg, Day 19): 24
Count, Variety B (Pythium ultimum; Metalaxyl 1 GA/100 Kg, Day 19): 5
Count, Variety A (Pythium ultimum; Metalaxyl 5 GA/100 Kg, Day 6): 70
Count, Variety B (Pythium ultimum; Metalaxyl 5 GA/100 Kg, Day 6): 94
Count, Variety A (Pythium ultimum; Metalaxyl 5 GA/100 Kg, Day 14): 73
Count, Variety B (Pythium ultimum; Metalaxyl 5 GA/100 Kg, Day 14): 84
Count, Variety A (Pythium ultimum; Metalaxyl 5 GA/100 Kg, Day 19): 49
Count, Variety B (Pythium ultimum; Metalaxyl 5 GA/100 Kg, Day 19): 45
Count, Variety A (Pythium ultimum; Metalaxyl 10 GA/100 Kg, Day 6): 73.75
Count, Variety B (Pythium ultimum; Metalaxyl 10 GA/100 Kg, Day 6): 83
Count, Variety A (Pythium ultimum; Metalaxyl 10 GA/100 Kg, Day 14): 77.5
Count, Variety B (Pythium ultimum; Metalaxyl 10 GA/100 Kg, Day 14): 85
Count, Variety A (Pythium ultimum; Metalaxyl 10 GA/100 Kg, Day 19): 72.5
Count, Variety B (Pythium ultimum; Metalaxyl 10 GA/100 Kg, Day 19): 68
Count, Variety A (Pythium ultimum; Metalaxyl 15 GA/100 Kg, Day 6): 60
Count, Variety B (Pythium ultimum; Metalaxyl 15 GA/100 Kg, Day 6): 83
Count, Variety A (Pythium ultimum; Metalaxyl 15 GA/100 Kg, Day 14): 81.25
Count, Variety B (Pythium ultimum; Metalaxyl 15 GA/100 Kg, Day 14): 80
Count, Variety A (Pythium ultimum; Metalaxyl 15 GA/100 Kg, Day 19): 36.25
Count, Variety B (Pythium ultimum; Metalaxyl 15 GA/100 Kg, Day 19): 62
Relative Density (Pythium [2]; Metalaxyl 15.5 GA/100 Kg (reference), 34 DAA, Ctrl. soil): 100
Relative Density (Pythium [2]; Metalaxyl 15.5 GA/100 Kg (reference), 34 DAA, Soil Inoc. with Pythium): 100
Relative Density (Pythium [2]; Metalaxyl 15.5 GA/100 Kg (reference), 46 DAA, Ctrl. soil): 100
Relative Density (Pythium [2]; Metalaxyl 15.5 GA/100 Kg (reference), 46 DAA, Soil Inoc. with Pythium): 100
Count (Pythium [2]; [6]): 37
Density (Pythium [2]; [6]): 74
Count (Pythium [2]; [7]): 25
Density (Pythium [2]; [7]): 50
Count (Pythium [2]; [8]): 37.5
Density (Pythium [2]; [8]): 75
Count (Pythium [2]; [9]): 24.5
Density (Pythium [2]; [9]): 49
Count (Pythium [2]; [10]): 38
Density (Pythium [2]; [10]): 76
Relative Density (Pythium [2]; [10]): 102.7
Count (Pythium [2]; [11]): 26.5
Density (Pythium [2]; [11]): 53
Relative Density (Pythium [2]; [11]): 106
Count (Pythium [2]; [12]): 37
Density (Pythium [2]; [12]): 74
Relative Density (Pythium [2]; [12]): 98.7
Count (Pythium [2]; [13]): 24.5
Density (Pythium [2]; [13]): 49
Relative Density (Pythium [2]; [13]): 100
Count (Pythium [3]; Metalaxyl 2 GA/100 Kg, 30 DAA): 37
Density (Pythium [3]; Metalaxyl 2 GA/100 Kg, 30 DAA): 46.6
Relative Density (Pythium [3]; Metalaxyl 2 GA/100 Kg, 30 DAA): 124.2
Count (Pythium [3]; Metalaxyl 2 GA/100 Kg, 46 DAA): 73
Density (Pythium [3]; Metalaxyl 2 GA/100 Kg, 46 DAA): 90.9
Relative Density (Pythium [3]; Metalaxyl 2 GA/100 Kg, 46 DAA): 117.8
Vigor (Pythium [3]; Metalaxyl 2 GA/100 Kg, 46 DAA): 3.75
Count (Pythium [3]; [14]): 34
Density (Pythium [3]; [14]): 42.8
Relative Density (Pythium [3]; [14]): 114.2
Count (Pythium [3]; [15]): 73
Density (Pythium [3]; [15]): 91.6
Relative Density (Pythium [3]; [15]): 118.6
Vigor (Pythium [3]; [15]): 3.5
Count (Pythium [4]; [16]): 42.5
Density (Pythium [4]; [16]): 85
Relative Density (Pythium [4]; [16]): 121.4
Count (Pythium [4]; [17]): 26
Density (Pythium [4]; [17]): 52
Relative Density (Pythium [4]; [17]): 89.7
Count (Pythium [4]; [18]): 41.8
Density (Pythium [4]; [18]): 83.5
Relative Density (Pythium [4]; [18]): 122.8
Relative Density (Pythium [4]; Metalaxyl 31 GA/100 Kg (reference), 18 DAA, Ctrl. soil): 100
Relative Density (Pythium [4]; Metalaxyl 31 GA/100 Kg (reference), 18 DAA, Soil Inoc. with Pythium): 100
Relative Density (Pythium [4]; Metalaxyl 31 GA/100 Kg (reference), 33 DAA, Ctrl. soil): 100
Count (Pythium [4]; [19]): 35
Density (Pythium [4]; [19]): 70
Count (Pythium [4]; [20]): 29
Density (Pythium [4]; [20]): 58
Count (Pythium [4]; [21]): 34
Density (Pythium [4]; [21]): 68
Count (Pythium [4]; [22]): 8.3
Density (Pythium [4]; [22]): 16.5
Relative Density (Pythium [4]; [22]): 31.4
